{"source": "paper PMC12354831", "about": "(Cell Death Discovery, 2025)", "target": "T1, GLUT3 N413A (Homo sapiens, UniProt P11169, N413A)", "T1 construct": "expressed in transfected cells; host or cells: U87 and U343 per methods", "T1 sequence (P11169 1-496 N413A)": "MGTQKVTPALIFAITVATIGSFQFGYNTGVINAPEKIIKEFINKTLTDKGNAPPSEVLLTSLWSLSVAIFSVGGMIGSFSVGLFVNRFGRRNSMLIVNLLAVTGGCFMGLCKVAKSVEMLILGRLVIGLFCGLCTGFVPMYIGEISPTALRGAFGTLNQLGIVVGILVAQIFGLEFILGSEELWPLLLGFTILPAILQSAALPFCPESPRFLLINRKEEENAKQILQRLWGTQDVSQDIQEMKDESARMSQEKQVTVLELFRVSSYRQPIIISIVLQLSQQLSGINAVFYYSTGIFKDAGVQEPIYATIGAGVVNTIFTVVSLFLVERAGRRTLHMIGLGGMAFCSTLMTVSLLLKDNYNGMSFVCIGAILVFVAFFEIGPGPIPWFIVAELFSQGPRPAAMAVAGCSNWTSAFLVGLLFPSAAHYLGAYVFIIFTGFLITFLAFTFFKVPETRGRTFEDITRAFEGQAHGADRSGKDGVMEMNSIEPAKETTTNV", "test": "TMZ uptake by U251-MG cells stably expressing GLUT3 N413A vs WT GLUT3 (LC-MS/MS)", "format": "in vitro ADME", "protocol": "A total of 6 × 10^6 cells were seeded into each well of a 6 cm Petri dish and cultured at 37 °C in a humidified atmosphere containing 5% CO2 for 8 h. The cells were then washed twice with PBS (137 mM NaCl, 2.7 mM KCl, 10 mM Na2HPO4, 1.8 mM KH2PO4, pH 7.4) and incubated in transport buffer (140 mM NaCl, 5 mM KCl, 2 mM MgCl2, 2 mM CaCl2, 30 mM Tris-HCl, pH 7.4) for 15 min at 37 °C. […] Cell supernatants were collected and stored at 4 °C for subsequent extraction. The harvested cells were washed three times with PBS and extracted with 500 µL of 80% methanol for 30 min at −80 °C. The cell lysate was then centrifuged at 14,000 × g for 5 min at 4 °C, followed by 2 min of sonication. The supernatant was transferred to a new centrifuge tube. For LC-MS/MS analysis, the cell supernatants and cell lysates were diluted at a specific ratio. A total of 100 µL of each sample was mixed with 100 µL of acetonitrile (or standard reagent) and 300 µL of internal standard solution (^2H3-TMZ 100 ng/mL and ^2H11-CAPE 20 ng/mL dissolved in acetonitrile). […] Quality control (QC) samples were prepared and analyzed alongside the experimental samples to monitor the stability and repeatability of the instrument. QC samples were inserted regularly and analyzed every 6–12 samples. Each experiment was repeated 5–6 times. […]", "data": [{"smiles": "Cn1nnc2c(C(N)=O)ncn2c1=O", "note": "[TMZ]", "values": [{"measurement": "reduction in drug uptake", "result": "40–50%"}]}]}
